Test results as given in the NIST ThermoML archive (doi:10.1016/j.fluid.2016.02.006).
± gives the expanded uncertainty stated by the source. One block for each compound: values may come before it.

Legend:
[1] = Liquid, Vibrating tube method
[2] = xn = mol fraction of the nth substance listed; conditions: 101 kPa, Liquid, Vibrating tube method

mass density ([1]; 298.15 K, 101.33 kPa): 873.71 ± 2 kg/m3 | mass density ([1]; 308.15 K, 101 kPa): 862.98 ± 2 kg/m3 | mass density ([1]; 318.15 K, 101 kPa): 852.16 ± 2 kg/m3
Structure (SMILES): c1ccccc1 [benzene]

mass density ([2]; 308.15 K, x2 = 0): 862.98 ± 2 kg/m3 | mass density ([2]; 318.15 K, x2 = 0): 852.16 ± 2 kg/m3
Structure (SMILES): c1ccccc1 [benzene] + CCCCCCCC

Structure (SMILES): CCCC[N+](C)(C)C.O=S(=O)([N-]S(=O)(=O)C(F)(F)F)C(F)(F)F [butyltrimethylammonium bis(trifluoromethylsulfonyl)imide]
mass density ([1]; 298.15 K, 101.33 kPa): 1392.99 ± 6 kg/m3

mass density ([1]; 298.15 K, 101.33 kPa): 726.15 ± 2 kg/m3
Structure (SMILES): CCCCCCCCCC [decane]

mass density ([1]; 298.15 K, 101.33 kPa): 745.28 ± 2 kg/m3
Structure (SMILES): CCCCCCCCCCCC [dodecane]

mass density ([1]; 298.15 K, 101.33 kPa): 698.86 ± 2 kg/m3 | mass density ([1]; 308.15 K, 101 kPa): 690.72 ± 2 kg/m3 | mass density ([1]; 318.15 K, 101 kPa): 682.5 ± 2 kg/m3
Structure (SMILES): CCCCCCCC [octane]

mass density ([2]; 308.15 K, x1 = 0.0959): 832.4 ± 4.5 kg/m3 | mass density ([2]; 308.15 K, x1 = 0.1937): 806.43 ± 3.9 kg/m3 | mass density ([2]; 308.15 K, x1 = 0.3048): 781.74 ± 3.5 kg/m3 | mass density ([2]; 308.15 K, x1 = 0.41): 762.04 ± 3.2 kg/m3 | mass density ([2]; 308.15 K, x1 = 0.5097): 745.81 ± 2.9 kg/m3 | mass density ([2]; 308.15 K, x1 = 0.6058): 732.34 ± 2.7 kg/m3 | mass density ([2]; 308.15 K, x1 = 0.711): 719.36 ± 2.6 kg/m3 | mass density ([2]; 308.15 K, x1 = 0.8101): 708.42 ± 2.5 kg/m3 | mass density ([2]; 308.15 K, x1 = 0.9076): 698.91 ± 2.4 kg/m3 | mass density ([2]; 308.15 K, x1 = 1): 690.72 ± 2 kg/m3 | mass density ([2]; 318.15 K, x1 = 0.0988): 821.33 ± 4.4 kg/m3 | mass density ([2]; 318.15 K, x1 = 0.1982): 796.48 ± 3.9 kg/m3 | mass density ([2]; 318.15 K, x1 = 0.3072): 771.56 ± 3.5 kg/m3 | mass density ([2]; 318.15 K, x1 = 0.407): 753.05 ± 3.1 kg/m3 | mass density ([2]; 318.15 K, x1 = 0.5096): 736.77 ± 2.9 kg/m3 | mass density ([2]; 318.15 K, x1 = 0.598): 724.35 ± 2.7 kg/m3 | mass density ([2]; 318.15 K, x1 = 0.7048): 711.47 ± 2.6 kg/m3 | mass density ([2]; 318.15 K, x1 = 0.8039): 700.49 ± 2.5 kg/m3 | mass density ([2]; 318.15 K, x1 = 0.9005): 691.19 ± 2.4 kg/m3 | mass density ([2]; 318.15 K, x1 = 1): 682.5 ± 2 kg/m3
Structure (SMILES): CCCCCCCC [octane] + c1ccccc1

Structure (SMILES): CCCC[N+](C)(CCCC)CCCC.O=S(=O)([N-]S(=O)(=O)C(F)(F)F)C(F)(F)F [tributylmethylammonium bis((trifluoromethyl)sulfonyl)imide]
mass density ([1]; 298.15 K, 101.33 kPa): 1261.65 ± 6 kg/m3
